Measurements from the supplement of paper PMC4862054.

Columns and labels:
Conditions in all cases: incubation time: 72 h
BT-474 [1] = assay: normalised response (% of control), CellTox Green; higher = less cell death (100 = DMSO, 0 = benzethonium chloride kill control)
Method in brief: (§1)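 The table gives the normalised signal for a single concentration in each entry. Breast cancer cell lines were seeded (20 µl suspension) into 384-well plates holding compound at 5 concentrations in 10-fold steps over a compound-specific 10,000-fold range and incubated 72 h, then read for CellTox Green fluorescence (485/520 nm) and CellTiter-Glo luminescence. Normalisation on each plate used 0.1 % DMSO (100) and a positive kill control (0).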

BT-549 [2] = assay: as above
Method in brief: as §1

CAL-120 [3] = assay: as above
Method in brief: as §1

CAL-148 [4] = assay: as above
Method in brief: as §1

CAL-51 [5] = assay: as above
Method in brief: as §1

CAL-85-1 [6] = assay: as above
Method in brief: as §1

DU-4475 [7] = assay: as above
Method in brief: as §1

HCC1143 [8] = assay: as above
Method in brief: as §1

HCC1599 [9] = assay: as above
Method in brief: as §1

HCC1937 [10] = assay: as above
Method in brief: as §1

HDQ-P1 [11] = assay: as above
Method in brief: as §1

Hs578T [12] = assay: as above
Method in brief: as §1

MCF-10A [13] = assay: as above
Method in brief: as §1

MDA-MB-231 [14] = assay: as above
Method in brief: as §1

MDA-MB-436 [15] = assay: as above
Method in brief: as §1

MDA-MB-453 [16] = assay: as above
Method in brief: as §1

MDA-MB-468 [17] = assay: as above
Method in brief: as §1

MFM-223 [18] = assay: as above
Method in brief: as §1

BT-474 [19] = assay: normalised response (% of control), CellTiter-Glo; higher = more viable cells (100 = DMSO, 0 = benzethonium chloride kill control)
Method in brief: as §1

BT-549 [20] = assay: as above
Method in brief: as §1

CAL-120 [21] = assay: as above
Method in brief: as §1

CAL-148 [22] = assay: as above
Method in brief: as §1

CAL-51 [23] = assay: as above
Method in brief: as §1

CAL-85-1 [24] = assay: as above
Method in brief: as §1

DU-4475 [25] = assay: as above
Method in brief: as §1

HCC1143 [26] = assay: as above
Method in brief: as §1

HCC1599 [27] = assay: as above
Method in brief: as §1

HCC1937 [28] = assay: as above
Method in brief: as §1

HDQ-P1 [29] = assay: as above
Method in brief: as §1

Hs578T [30] = assay: as above
Method in brief: as §1

MCF-10A [31] = assay: as above
Method in brief: as §1

MDA-MB-231 [32] = assay: as above
Method in brief: as §1

MDA-MB-436 [33] = assay: as above
Method in brief: as §1

MDA-MB-453 [34] = assay: as above
Method in brief: as §1

MDA-MB-468 [35] = assay: as above
Method in brief: as §1

MFM-223 [36] = assay: as above
Method in brief: as §1

SK-BR-3 = assay: as above
Method in brief: as §1

SMILES | normalised response (BT-474 [1]) | normalised response (BT-549 [2]) | normalised response (CAL-120 [3]) | normalised response (CAL-148 [4]) | normalised response (CAL-51 [5]) | normalised response (CAL-85-1 [6]) | normalised response (DU-4475 [7]) | normalised response (HCC1143 [8]) | normalised response (HCC1599 [9]) | normalised response (HCC1937 [10]) | normalised response (HDQ-P1 [11]) | normalised response (Hs578T [12]) | normalised response (MCF-10A [13]) | normalised response (MDA-MB-231 [14]) | normalised response (MDA-MB-436 [15]) | normalised response (MDA-MB-453 [16]) | normalised response (MDA-MB-468 [17]) | normalised response (MFM-223 [18]) | normalised response (BT-474 [19]) | normalised response (BT-549 [20]) | normalised response (CAL-120 [21]) | normalised response (CAL-148 [22]) | normalised response (CAL-51 [23]) | normalised response (CAL-85-1 [24]) | normalised response (DU-4475 [25]) | normalised response (HCC1143 [26]) | normalised response (HCC1599 [27]) | normalised response (HCC1937 [28]) | normalised response (HDQ-P1 [29]) | normalised response (Hs578T [30]) | normalised response (MCF-10A [31]) | normalised response (MDA-MB-231 [32]) | normalised response (MDA-MB-436 [33]) | normalised response (MDA-MB-453 [34]) | normalised response (MDA-MB-468 [35]) | normalised response (MFM-223 [36]) | normalised response (SK-BR-3)
COc1cc2c(NC3CCN(C(C)C)CC3)nc(C3CCCCC3)nc2cc1OCCCN1CCCC1 [UNC0638] (10000 nM) | -17.5% | 17% | -29.4% | 2.74% | -16.4% | -10.2% | 88.3% | 94.9% | 62.2% | -27% | 58.6% | 13.9% | -76.4% | -58.7% | 18.6% | -11.5% | -186% | 36.8% | 2.59% | 1.52% | 8.51% | 3.47% | 17% | 0.26% | 71.8% | 36.4% | 14% | 13.6% | 23.3% | 51.9% | 0.31% | 0.6% | 7.47% | 0.34% | 0.31% | 3.95% | 2.89%
CC[C@H](Nc1ncnc2[nH]cnc12)c1nc2cccc(F)c2c(=O)n1-c1ccccc1 [GS-1101] (10000 nM) | 97.9% | 114% | 98.2% | 79.9% | 107% | 96.4% | 95.5% | 99.5% | 93.5% | 94.4% | 61.4% | 109% | 102% | 86.4% | 111% | 73.4% | 59.5% | 95.4% | 71.4% | 69.6% | 77.8% | 86% | 120% | 93.1% | 96.3% | 81.3% | 107% | 78.7% | 71.7% | 76.5% | 63% | 73.6% | 59.8% | 61.8% | 64.7% | 77% | 62.9%
COc1cc([C@@H]2c3cc4c(cc3[C@@H](O[C@@H]3O[C@@H]5CO[C@@H](c6cccs6)O[C@H]5[C@H](O)[C@H]3O)[C@H]3COC(=O)[C@H]23)OCO4)cc(OC)c1O [Teniposide] (10000 nM) | 59.4% | 59% | 22.2% | 38.7% | 13.6% | -1.62% | 61.9% | 74.5% | 67% | 51% | -41.5% | 45.6% | 59.6% | -78.1% | 80.5% | 105% | 29.8% | 48.8% | 9.52% | 5.21% | 23.6% | 4.81% | 14% | 8.03% | 4.51% | 10.8% | 5.92% | 22.8% | 34.3% | 6.65% | 51.8% | 15.6% | 17.1% | 64% | 7.53% | 12.9% | 6.25%
